# Values of other authors in patent publication US7592468B2, “Production of Δ 9 tetrahydrocannabinol” (Resolution Chemicals Limited, priority 2003, dated 2009).
# Conditions: greater than Δ8-THC
smiles,measurement,value
"CCCCCc1cc(O)c2c(c1)OC(C)(C)[C@@H]1CCC(C)=C[C@@H]21 [Δ9-THC, Delta 9 tetrahydrocannabinol]",psychomimetic activity relative to Δ8-THC,20 times
